The numbers were not newly measured in patent US20180326089A1, “PROTEIN NANOSTRUCTURE BASED DRUG DELIVERY SYSTEM FOR THE DELIVERY OF THERAPEUTIC AGENTS TO THE ANTERIOR SEGMENT OF THE EYE” (Council of Scientific & Industrial Research, priority 2015, published 2018), which cites them from elsewhere.

Turning to `CC(=O)N1CCN(c2ccc(OCC3COC(Cn4ccnc4)(c4ccc(Cl)cc4Cl)O3)cc2)CC1` (stereo not shown) [Ketoconazole], the water solubility result is “poorly water soluble”.
